# How the values were obtained:
# Type in all cases: cell-based
# MOLM-13 cells = test: MOLM-13 cell viability assay (CellTiter-Glo); settings: Homo sapiens, MOLM-13, 72 h, 3 days, read-out: MOLM-13 Cell Viability % DMSO at 1 μM
# Experimental: MOLM-13 cells were cultured in RPMI 1640 media supplemented with 10% fetal bovine serum, streptomycin and penicillin, and were plated in walled 96-well plates at 2500 cells/well. Cells were incubated in DMSO (control) or the indicated compound for 3 days at 37° C. and 5% CO2. Following the incubation period, 100 μL of CellTiterGlow (CTG) reagent (CellTiter-Glo® Luminescent Cell Viability Assay, Promega (Madison, Wis.)) was added to each well. Following a 10 minutes incubation with shaking, luminescence was measured using the EnVision Multimode plate reader.
# The MOLM-13 cell viability values as % DMSO are reported as “A”, “B”, “C”, or “D”. “A” represents a % viability value of less than 50% (value <50%). “B” represents a % viability value of equal to or more than 50% and less than 70% (50%≤value<70%). “C” represents a % viability value of equal to or more than 70% and less than 90% (70%≤value<90%). “D” represents a % viability value of equal or more than 90% (value ≥90%).
# CDK16 = target: T1, CDK16 (Homo sapiens, UniProt Q00536); test: CDK16 degradation assay (Western blot, MV-4-11 cells); settings: 6-8 h; for Dmax at 0.1 µM: MV4-11, 0.1 μM; for Dmax at 1 µM: MV4-11, 1 μM
# T1 construct: Whole cell extracts were prepared using RIPA buffer; endogenous in cells; host or cells: MV-4-11
# Experimental: (§1) MV-4-11 cells were grown in RPMI 1640 media supplemented with 10% fetal bovine serum, streptomycin and penicillin.
# (§2) Cells were cultured at approximately 10^6 cells per mL and incubated in DMSO or the indicated compound for 6-8 h. Whole cell extracts were prepared using RIPA buffer according to manufacturer's protocol (Pierce). Briefly, 3×10^6 cells were washed once in PBS, the cell pellets were resuspended in RIPA buffer and allowed to incubate for 15 minutes on ice. Cells debris was removed by centrifugation and the cleared whole cell lysates were transferred to new tubes for further analysis.
# (§3) For Western blot analysis, whole cell protein extracts were separated on 4-12% SDS-polyacrylamide gels, transferred to nitrocellulose and probed with the indicated primary antibodies. Membranes were subsequently washed and probed with the appropriate IRDye secondary antibodies (LI-COR). The signal was detected using the Odyssey Imaging System (LI-COR).
# (§4) The following antibodies were used in these studies: Anti-eRF3/GSPT1: Abcam, ab126090 (Cambridge, Mass.); Anti-Ikaros: Abcam, ab191394 (Cambridge, Mass.); Anti-CK1α: Abcam, ab108296 (Cambridge, Mass.); Anti-CDK9: Santa Cruz Biotechnology, sc13130 (Dallas, Tex.); Anti-CDK16: Millipore Sigma, HPA001366 (St. Louis, Mo.); 3-actin (8H10comD10) mouse monoclonal antibody: Cell Signaling Technology, #3700 (Danvers, Mass.); IRDye 680RD Goat anti-rabbit antibody: LI-COR, 926-68071 (Lincoln, Nebr.); IRDye 800CW Goat anti-mouse antibody: LI-COR, 926-32210 (Lincoln, Nebr.).
# (§5) CDK9 activities are shown in Table 4 at two different concentrations. CDK16 activities are shown in Table 5 at two different concentrations. In each of Tables 1-5, the % degradation values are reported as “A”, “B”, “C”, or “D”. “A” represents a % degradation value of less than 25% (value <25%). “B” represents a % degradation value of equal to or more than 25% and less than 50% (25%≤value<50%). “C” represents a % degradation value of equal to or more than 50% and less than 75% (50%≤value<75%). “D” represents a % degradation value of equal to or more than 75% (value ≥75%).
# CDK9 = target: T2, CDK9 (Homo sapiens, UniProt P50750); test: CDK9 degradation assay (Western blot, MV-4-11 cells); settings: 6-8 h; for Dmax at 0.1 µM: MV4-11, 0.1 μM; for Dmax at 1 µM: MV4-11, 1 μM
# T2 construct: Whole cell extracts were prepared using RIPA buffer; endogenous in cells; host or cells: MV-4-11
# Experimental: as §1, §2, §3, §4, §5
# IKAROS = target: T3, IKAROS (Homo sapiens, UniProt Q13422+Q96SW2); test: IKAROS degradation assay (Western blot, MV-4-11 cells); settings: MV4-11, 6-8 h
# T3 construct: endogenous in cells; host or cells: MV-4-11
# Experimental: as §1, §2, §3, §4, §5
# TNF-α = TNF-α inhibition assay, LPS-induced PBMCs / CD14+ monocytes (Meso Scale); settings: 1 h pretreatment, 100 ng/mL LPS 18-24 h
# Experimental: (§6) Either frozen primary blood mononuclear cells (PBMCs) or frozen CD14+ mobilized peripheral blood monocytes were purchased from AllCells (PB003F, Normal Peripheral Blood MNC (Alameda, Calif.)). Cells were quick thawed, washed 1-time with RPMI-1640 (10% FBS/1% Pen-Strep) and plated in 96 well plates at 200,000 cells per well. Cells were pretreated with DMSO only or with the indicated compound for 1 h and then induced with 100 ng/mL lipopolysaccharide (LPS) for 18-24 h. The supernatant was analyzed for IL-1β, IL-6, and TNFα, using Meso Scale assay according to manufacturer's protocol. The negative control wells were treated with DMSO.
# (§7) In Table 6, the % inhibition values are reported as “A”, “B”, “C”, or “D”. “A” represents a % inhibition value of less than 50% (value <50%). “B” represents a % inhibition value of equal to or more than 50% and less than 70% (50%≤value<70%). “C” represents a % inhibition value of equal to or more than 70% and less than 90% (70%≤value<90%). “D” represents a % inhibition value of equal or more than 90% (value ≥90%). In Table 7, the fold-change values are reported as “A”, “B”, “C”, or “D”. “A” represents a fold-change value of equal to or less than 0.1 (value ≤0.1). “B” represents a fold-change value of more than 0.1 and equal to or less than 0.5 (0.1<value≤0.5). “C” represents a fold-change value of more than 0.5 and equal to or less than 1 (0.5<value≤1). “D” represents a fold-change value of more than 1 (value >1).
# IL-6 = IL-6 inhibition assay, LPS-induced PBMCs / CD14+ monocytes (Meso Scale); settings: 1 h pretreatment, 100 ng/mL LPS 18-24 h
# Experimental: as §6, §7
# IL-1β = IL-1β inhibition assay, LPS-induced PBMCs / CD14+ monocytes (Meso Scale); settings: 1 h pretreatment, 100 ng/mL LPS 18-24 h
# Experimental: as §6, §7
# GSPT1 = target: T4, GSPT1 (Homo sapiens, UniProt P15170+Q96SW2); test: GSPT1 degradation assay (Western blot, MV-4-11 cells); settings: MV4-11, 6-8 h
# T4 construct: Whole cell extracts were prepared using RIPA buffer; endogenous in cells; host or cells: MV-4-11
# Experimental: as §1, §2, §3, §4, §5
# T2 sequence (P50750 whole entry): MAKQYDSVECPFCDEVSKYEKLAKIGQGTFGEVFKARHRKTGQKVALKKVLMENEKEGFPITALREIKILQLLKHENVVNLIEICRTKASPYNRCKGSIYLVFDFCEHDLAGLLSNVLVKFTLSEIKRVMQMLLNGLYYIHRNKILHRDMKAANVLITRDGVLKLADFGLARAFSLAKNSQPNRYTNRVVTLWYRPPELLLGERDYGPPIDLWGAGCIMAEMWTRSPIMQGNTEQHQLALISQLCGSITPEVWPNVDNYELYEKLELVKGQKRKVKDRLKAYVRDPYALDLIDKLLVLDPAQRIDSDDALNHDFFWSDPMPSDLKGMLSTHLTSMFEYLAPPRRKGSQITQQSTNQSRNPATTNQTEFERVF
# T3 sequence (Q13422 whole entry): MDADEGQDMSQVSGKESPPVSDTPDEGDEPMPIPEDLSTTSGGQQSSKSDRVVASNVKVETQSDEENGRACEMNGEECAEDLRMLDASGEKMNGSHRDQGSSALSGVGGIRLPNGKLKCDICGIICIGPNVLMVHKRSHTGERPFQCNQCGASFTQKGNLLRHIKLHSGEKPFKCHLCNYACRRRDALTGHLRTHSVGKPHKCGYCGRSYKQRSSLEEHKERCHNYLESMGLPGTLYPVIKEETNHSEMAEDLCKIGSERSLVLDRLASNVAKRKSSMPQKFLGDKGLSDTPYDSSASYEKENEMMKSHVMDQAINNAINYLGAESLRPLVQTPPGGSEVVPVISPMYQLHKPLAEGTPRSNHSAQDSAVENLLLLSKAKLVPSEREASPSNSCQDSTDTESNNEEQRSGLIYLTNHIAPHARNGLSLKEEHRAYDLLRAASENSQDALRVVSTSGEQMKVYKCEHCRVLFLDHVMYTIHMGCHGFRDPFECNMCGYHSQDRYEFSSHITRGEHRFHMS
# T3 sequence (Q96SW2 whole entry): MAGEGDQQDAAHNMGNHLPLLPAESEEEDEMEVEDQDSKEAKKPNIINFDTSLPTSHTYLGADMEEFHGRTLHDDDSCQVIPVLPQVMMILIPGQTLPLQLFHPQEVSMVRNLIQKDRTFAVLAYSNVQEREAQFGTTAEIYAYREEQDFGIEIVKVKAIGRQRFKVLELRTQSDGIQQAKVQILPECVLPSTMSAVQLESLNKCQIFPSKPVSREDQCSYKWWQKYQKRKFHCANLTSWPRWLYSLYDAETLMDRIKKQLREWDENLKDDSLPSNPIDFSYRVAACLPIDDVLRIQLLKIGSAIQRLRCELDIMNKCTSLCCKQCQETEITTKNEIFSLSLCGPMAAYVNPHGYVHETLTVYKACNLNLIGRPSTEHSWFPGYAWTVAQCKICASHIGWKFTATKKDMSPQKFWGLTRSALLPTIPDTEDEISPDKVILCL
# T3 sequence (Q16531 whole entry partner): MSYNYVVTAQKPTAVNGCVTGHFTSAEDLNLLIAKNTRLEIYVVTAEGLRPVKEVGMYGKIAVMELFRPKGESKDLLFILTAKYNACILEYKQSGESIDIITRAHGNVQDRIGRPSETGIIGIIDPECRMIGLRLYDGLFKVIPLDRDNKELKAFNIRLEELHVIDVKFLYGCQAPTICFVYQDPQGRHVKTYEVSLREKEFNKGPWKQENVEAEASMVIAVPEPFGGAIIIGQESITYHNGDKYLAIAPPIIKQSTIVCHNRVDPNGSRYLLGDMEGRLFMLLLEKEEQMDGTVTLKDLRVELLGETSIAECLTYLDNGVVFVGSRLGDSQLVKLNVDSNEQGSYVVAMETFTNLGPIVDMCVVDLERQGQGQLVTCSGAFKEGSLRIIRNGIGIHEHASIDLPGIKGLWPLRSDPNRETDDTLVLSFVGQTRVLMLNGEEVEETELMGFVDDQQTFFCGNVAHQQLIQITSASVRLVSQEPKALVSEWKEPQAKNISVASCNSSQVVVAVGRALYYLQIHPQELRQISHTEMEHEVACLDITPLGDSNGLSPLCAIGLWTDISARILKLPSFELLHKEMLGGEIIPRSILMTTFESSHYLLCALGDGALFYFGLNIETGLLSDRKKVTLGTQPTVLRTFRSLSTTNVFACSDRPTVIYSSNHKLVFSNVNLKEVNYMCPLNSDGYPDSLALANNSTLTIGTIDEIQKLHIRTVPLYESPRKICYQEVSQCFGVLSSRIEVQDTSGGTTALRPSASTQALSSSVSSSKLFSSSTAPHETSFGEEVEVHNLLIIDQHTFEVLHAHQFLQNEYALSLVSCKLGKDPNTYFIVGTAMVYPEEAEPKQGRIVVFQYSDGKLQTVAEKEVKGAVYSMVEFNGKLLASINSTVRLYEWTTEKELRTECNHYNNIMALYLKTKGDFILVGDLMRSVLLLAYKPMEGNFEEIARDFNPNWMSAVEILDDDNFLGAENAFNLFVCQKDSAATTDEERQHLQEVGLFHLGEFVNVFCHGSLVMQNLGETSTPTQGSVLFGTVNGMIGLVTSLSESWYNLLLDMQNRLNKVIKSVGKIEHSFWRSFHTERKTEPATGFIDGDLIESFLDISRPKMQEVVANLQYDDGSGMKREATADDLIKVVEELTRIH
# T1 sequence (Q00536 whole entry): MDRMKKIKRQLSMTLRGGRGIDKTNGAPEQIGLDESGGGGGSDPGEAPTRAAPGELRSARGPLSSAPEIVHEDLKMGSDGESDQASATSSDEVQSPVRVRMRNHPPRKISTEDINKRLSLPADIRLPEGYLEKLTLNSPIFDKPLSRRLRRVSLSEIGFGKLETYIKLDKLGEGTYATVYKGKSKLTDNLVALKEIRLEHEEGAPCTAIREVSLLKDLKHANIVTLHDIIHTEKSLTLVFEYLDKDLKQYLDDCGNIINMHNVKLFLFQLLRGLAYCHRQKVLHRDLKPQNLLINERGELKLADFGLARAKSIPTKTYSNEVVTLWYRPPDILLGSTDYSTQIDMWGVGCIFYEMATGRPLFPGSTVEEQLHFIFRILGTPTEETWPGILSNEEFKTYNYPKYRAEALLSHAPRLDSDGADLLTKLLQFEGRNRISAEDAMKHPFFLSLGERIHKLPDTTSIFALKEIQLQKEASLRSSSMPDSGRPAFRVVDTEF
# T4 sequence (P15170 whole entry): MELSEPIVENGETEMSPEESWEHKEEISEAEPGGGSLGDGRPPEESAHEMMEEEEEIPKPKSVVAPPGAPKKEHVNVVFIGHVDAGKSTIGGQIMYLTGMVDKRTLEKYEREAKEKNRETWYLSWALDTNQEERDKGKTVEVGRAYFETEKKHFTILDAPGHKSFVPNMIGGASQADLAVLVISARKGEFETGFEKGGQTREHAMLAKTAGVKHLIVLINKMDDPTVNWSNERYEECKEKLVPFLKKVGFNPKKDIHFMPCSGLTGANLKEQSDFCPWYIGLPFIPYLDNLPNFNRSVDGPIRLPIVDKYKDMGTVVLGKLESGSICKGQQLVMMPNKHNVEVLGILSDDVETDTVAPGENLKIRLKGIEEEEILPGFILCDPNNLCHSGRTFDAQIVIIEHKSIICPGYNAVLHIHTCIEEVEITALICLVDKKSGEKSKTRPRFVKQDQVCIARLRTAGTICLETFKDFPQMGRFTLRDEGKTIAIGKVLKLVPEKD
# T4 sequence (Q96SW2 whole entry): as the sequence (Q96SW2 whole entry) above
# T4 sequence (Q16531 whole entry partner): as the sequence (Q16531 whole entry partner) above
SMILES,Dmax at 0.1 µM (CDK16) [%],Dmax at 1 µM (CDK16) [%],Dmax at 0.1 µM (CDK9) [%],Dmax at 1 µM (CDK9) [%],Dmax at 1 µM (IKAROS) [%],Dmax at 1 µM (GSPT1) [%],viability at 1 µM (MOLM-13 cells) [%],inhibition at 1 µM (TNF-α) [%],inhibition at 1 µM (IL-6) [%],inhibition at 1 µM (IL-1β) [%]
"Cn1ncc(-c2nc(N[C@H]3CC[C@H](NC(=O)CCCCCCNC(=O)NCc4cc5c(s4)C(=O)N(C4CCC(=O)NC4=O)C5)CC3)ncc2Cl)c1CC1CC1 (some centres unmarked) [Compound 5, N-((1r,4r)-4-((5-chloro-4-(5-(cyclopropylmethyl)-1-methyl-1H-pyrazol-4-yl)pyrimidin-2-yl)amino)cyclohexyl)-7-(3-((5-(2,6-dioxopiperidin-3-yl)-6-oxo-5,6-dihydro-4H-thieno[2,3-c]pyrrol-2-yl)methyl)ureido)heptanamide]",–,–,–,–,–,–,> 90,70 to 90,> 90,> 90
"CC(C)(C)c1cnc(CSc2cnc(NC(=O)C3CCN(CC(=O)NCCOCCOCCOCCNc4cccc5c4C(=O)N(C4CCC(=O)NC4=O)C5=O)CC3)s2)o1 (centres unmarked) [Compound 10, N-(5-(((5-(tert-butyl)oxazol-2-yl)methyl)thio)thiazol-2-yl)-1-(14-((2-(2,6-dioxopiperidin-3-yl)-1,3-dioxoisoindolin-4-yl)amino)-2-oxo-6,9,12-trioxa-3-azatetradecyl)piperidine-4-carboxamide]",–,–,–,–,50 to 75,–,–,–,–,–
"CC(C)(C)c1cnc(CSc2cnc(NC(=O)C3CCN(CCOCCOCCNC(=O)NCc4cc5c(s4)C(=O)N(C4CCC(=O)NC4=O)C5)CC3)s2)o1 (centres unmarked) [Compound 19, N-(5-(((5-(tert-butyl)oxazol-2-yl)methyl)thio)thiazol-2-yl)-1-(1-(5-(2,6-dioxopiperidin-3-yl)-6-oxo-5,6-dihydro-4H-thieno[2,3-c]pyrrol-2-yl)-3-oxo-7,10-dioxa-2,4-diazadodecan-12-yl)piperidine-4-carboxamide]",–,–,–,–,–,–,70 to 90,70 to 90,> 90,> 90
"CN(CCNCC(=O)NCc1scc2c1CN(C1CCC(=O)NC1=O)C2=O)CCNC(=O)CN1CCC(C(=O)Nc2ncc(SCc3ncc(C(C)(C)C)o3)s2)CC1 (centres unmarked) [Compound 44, N-(5-(((5-(tert-butyl)oxazol-2-yl)methyl)thio)thiazol-2-yl)-1-(1-(5-(2,6-dioxopiperidin-3-yl)-4-oxo-5,6-dihydro-4H-thieno[3,4-c]pyrrol-1-yl)-8-methyl-3,12-dioxo-2,5,8,11-tetraazatridecan-13-yl)piperidine-4-carboxamide]",–,–,–,–,–,–,50 to 70,50 to 70,< 50,50 to 70

# The next lines start with results.
Dmax at 0.1 µM (CDK16) [%],Dmax at 1 µM (CDK16) [%],Dmax at 0.1 µM (CDK9) [%],Dmax at 1 µM (CDK9) [%],Dmax at 1 µM (IKAROS) [%],Dmax at 1 µM (GSPT1) [%],SMILES,viability at 1 µM (MOLM-13 cells) [%],inhibition at 1 µM (TNF-α) [%],inhibition at 1 µM (IL-6) [%],inhibition at 1 µM (IL-1β) [%]
50 to 75,≥ 75,50 to 75,≥ 75,25 to 50,–,"Cn1ncc(-c2nc(N[C@H]3CC[C@H](NCCCCCCNC(=O)NCc4cc5c(s4)C(=O)N(C4CCC(=O)NC4=O)C5)CC3)ncc2Cl)c1CC1CC1 (some centres unmarked) [Compound 24, 1-(6-(((1r,4r)-4-((5-chloro-4-(5-(cyclopropylmethyl)-1-methyl-1H-pyrazol-4-yl)pyrimidin-2-yl)amino)cyclohexyl)amino)hexyl)-3-((5-(2,6-dioxopiperidin-3-yl)-6-oxo-5,6-dihydro-4H-thieno[2,3-c]pyrrol-2-yl)methyl)urea]",> 90,–,–,–
< 25,25 to 50,< 25,25 to 50,–,–,"Cn1ncc(-c2nc(N[C@H]3CC[C@H](NCC(=O)NCCCCNCC(=O)NCc4cc5c(s4)C(=O)N(C4CCC(=O)NC4=O)C5=O)CC3)ncc2Cl)c1CC1CC1 (some centres unmarked) [Compound 36, 2-(((1r,4r)-4-((5-chloro-4-(5-(cyclopropylmethyl)-1-methyl-1H-pyrazol-4-yl)pyrimidin-2-yl)amino)cyclohexyl)amino)-N-(4-((2-(((5-(2,6-dioxopiperidin-3-yl)-4,6-dioxo-5,6-dihydro-4H-thieno[2,3-c]pyrrol-2-yl)methyl)amino)-2-oxoethyl)amino)butyl)acetamide]",50 to 70,70 to 90,70 to 90,70 to 90
–,–,–,–,–,25 to 50,"Cn1ncc(-c2nc(NC3CCC(NC(=O)CCCCCCNC(=O)NCc4scc5c4CN(C4CCC(=O)NC4=O)C5=O)CC3)ncc2Cl)c1CC1CC1 (centres unmarked) [Compound 4, 3-[2-({3-[7-(4-{5-Chloro-4-[5-(cyclopropylmethyl)-1-methyl-1H-pyrazol-4-yl]-2-pyrimidinylamino}cyclohexylamino)-7-oxoheptyl]ureido}methyl)-6-oxo-3-thia-7-azabicyclo[3.3.0]octa-1,4-dien-7-yl]-2,6-piperidinedione]",> 90,–,–,–
–,–,–,–,50 to 75,–,"CC(C)(C)c1cnc(CSc2cnc(NC(=O)C3CCN(CCCCCCCCNC(=O)NCc4cc5c(s4)C(=O)N(C4CCC(=O)NC4=O)C5)CC3)s2)o1 (centres unmarked) [Compound 20, N-(5-(((5-(tert-butyl)oxazol-2-yl)methyl)thio)thiazol-2-yl)-1-(8-(3-((5-(2,6-dioxopiperidin-3-yl)-6-oxo-5,6-dihydro-4H-thieno[2,3-c]pyrrol-2-yl)methyl)ureido)octyl)piperidine-4-carboxamide]",> 90,–,–,–
–,–,–,–,25 to 50,–,"CC(C)(C)c1cnc(CSc2cnc(NC(=O)C3CCN(CC(=O)NCCCCCNC(=O)NCc4cc5c(s4)C(=O)N(C4CCC(=O)NC4=O)C5=O)CC3)s2)o1 (centres unmarked) [Compound 27, N-(5-(((5-(tert-butyl)oxazol-2-yl)methyl)thio)thiazol-2-yl)-1-(2-((5-(3-((5-(2,6-dioxopiperidin-3-yl)-4,6-dioxo-5,6-dihydro-4H-thieno[2,3-c]pyrrol-2-yl)methyl)ureido)pentyl)amino)-2-oxoethyl)piperidine-4-carboxamide]",> 90,–,–,–
–,50 to 75,50 to 75,50 to 75,25 to 50,–,"Cn1ncc(-c2nc(N[C@H]3CC[C@H](NCC(=O)NCCCCCNCC(=O)NCc4cc5c(s4)C(=O)N(C4CCC(=O)NC4=O)C5)CC3)ncc2F)c1CC1CC1 (some centres unmarked) [Compound 25, 2-(((1r,4r)-4-((4-(5-(cyclopropylmethyl)-1-methyl-1H-pyrazol-4-yl)-5-fluoropyrimidin-2-yl)amino)cyclohexyl)amino)-N-(5-((2-(((5-(2,6-dioxopiperidin-3-yl)-6-oxo-5,6-dihydro-4H-thieno[2,3-c]pyrrol-2-yl)methyl)amino)-2-oxoethyl)amino)pentyl)acetamide]",> 90,–,–,–

# — patent US20220153751A1, “BIFUNCTIONAL COMPOUNDS” (BioTheryX, Inc., priority 2018, published 2022)
